Data set [1] relates to transgenic fli-1: enhanced GFP zebrafish embryos. Briefly: Zebrafish embryo assay: antiangiogenic effects. The class given is in vivo, zebrafish (Danio rerio). To be noted: zebrafish embryos.
For data set [2], the system named is zebrafish embryos. Briefly: Zebrafish toxicity: heart rates. The data set is classed as in vivo. The conditions noted are these: for Heart rates of zebrafish: control 117 beats/min. The procedure: (§1) To investigate the toxicity of these four compounds, the heart rates and the mortality rates of zebrafish embryos were recorded (Table 2 and Table 3). The heart rate of zebrafish in the control group was 117 beats/min.
(§2) Using transgenic fli-1: enhanced GFP zebrafish embryos, we investigated the effects of all compounds on angiogenesis. Zebrafish embryos were generated by natural pairwise mating and raised at 28.5 °C in embryo water (0.2 g/L of Instant Ocean Salt in distilled water). At about 6 h post fertilization (hpf), the embryos were sorted in the 6-well plate (six embryos/well), removing dead and unhealthy embryos. Then the embryos were treated with the indicated concentrations of compounds which were added into embryo water. After incubation for 24 or 48 h, the embryos were anesthetized using 0.05% 2-phenoxyethanol in embryo water, quantified and photographed.

In data set [3] the test system is zebrafish embryos. Briefly: Zebrafish toxicity: mortality rate. The class given is in vivo, zebrafish (Danio rerio). The procedure: as §1, §2
In data set [4] the test system is HUVECs. Briefly: Wound-healing migration assay. The data set is classed as cell-based, Human. The conditions noted are these: 1 μM, 24 h, control = 100%. The source says:
The migration of ECs is an important step of angiogenesis. The continuity of vascular ECs is the most important factor in preserving vessel wall function. Migration of ECs is essential to the recovery of this continuity after vascular ECs injury. […] As illustrated in Figure 3(I), the HUVECs migrated into the wound area actively (between the two white dash lines) under the compound-free condition (control).
Figure 3 Effects on the HUVECs migration. (I) HUVECs suspended in serum-free Dulbecco’s Modified Eagle Medium (DMEM) containing compounds (0.25 or 0.5 or 1 μM) for 24 h were photographed under a phase contrast microscopy (Olympus CKX41, magnification: 50×). Control was treated with serum-free DMEM which was consided as resulting in 100%; (II) Migration rates of compounds on the HUVECs. Data represented the mean standard deviation (SD) from three independent experiments. *** p < 0.005compared with control.
HUVECs were seeded in 6-well plates precoated with 0.1% gelatin, and grown overnight to confluence. The monolayer cells were wounded by scratching with 10 μL pipet tips and washed twice with serum-free DMEM (Dulbecco’s modified eagle medium) to remove the nonadherent cells and then replaced by serum-free DMEM with the indicated concentrations of compounds for 24 h. Images were taken at 0 h and 24 h independently after incubation at 37 °C, 5% CO2 environment. The migrated HUVECs were manually counted. The values were observed from four randomly selected fields.

The subject of data set [5] is HUVECs. Briefly: Matrigel tube formation assay. The class given is cell-based, Human. The conditions noted are these: Homo sapiens, HUVEC, 0.5 μM, 6 h, vs control, read-out: inhibitory rates of tube formation. The procedure:
In the later stages of angiogenesis, tube formation of ECs is also an important process. Thus, a Matrigel tube formation assay was applied to assess the ability of HUVECs to form ECs vascular structures which is believed to be significant in new vessel formation.
Figure 4 Effects on the HUVECs tube formation. (I) HUVECs (1 × 10^4 cells) suspended in DMEM containing each compound (0.5 or 1 or 2 μM) were added to the Matrigel. Control was treated with DMEM alone. After incubation for 6 h at 37 °C, capillary networks were photographed and quantified (Olympus CKX41, magnification: 100×); (II) Rates of the HUVECs tube formation. The number of intact tubes was counted in five randomly chosen regions and expressed as the percentage of the control. The results were expressed as mean ±SD. ** p < 0.01; *** p < 0.005 compared with control.
Matrigel was dissolved at 4 °C overnight. Each well of prechilled 96-well plates was coated with 50 μL of Matrigel, incubated and solidified at 37 °C for 45 min. After removing the unsolidified fluid, HUVECs at the density of 1 × 10^4 were cultured in DMEM containing the indicated concentrations of compounds for 6 h. Controls were treated with the DMEM alone. Images were digitally captured and quantitatively analyzed (Olympus). The numbers and line lengths of the circular tubules formed by the cells were calculated manually. The values were observed from five randomly selected fields.

For another data set, the system named is A549. Briefly: MTT assay, cell proliferation. The data set is classed as cell-based. To be noted: Homo sapiens, 24 h, read-out: IC50, inhibition of cell proliferation. Summed up:
(§3)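 Viability after a 24 h compound exposure (5 × 10^3 cells/well, 37 °C) was measured by MTT reduction over 3 h with a 570 nm read-out. IC50 values are concentrations that halve proliferation relative to untreated control.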
Background: Tetrazolium assays rely on reduction of a dye to a coloured formazan, in cell work by metabolically active cells.

The test system of a further data set is HCT116. Briefly: MTT assay, cell proliferation. The class given is cell-based. To be noted: Homo sapiens, HCT-116, 24 h, read-out: IC50, inhibition of cell proliferation. The method in brief:
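Treatment lasted 24 h at 5 × 10^3 cells per well. MTT incubation ran 3 h, formazan was dissolved in DMSO and A570 was recorded. Percent growth against untreated wells gave the IC50 (50% inhibition).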

In another data set the test system is HeLa. The experiment in a line: MTT assay, cell proliferation. The class given is cell-based. To be noted: Homo sapiens, 24 h, read-out: IC50, inhibition of cell proliferation. The method in brief: (§4)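 Absorbance at 570 nm of DMSO-dissolved formazan was expressed as percentage growth relative to untreated cells, and IC50 was taken as the concentration giving 50% inhibition. Seeding was 5 × 10^3 cells per well, with 24 h compound treatment followed by 3 h MTT.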

Another data set has as its system HepG2. Briefly: MTT assay, cell proliferation. The class given is cell-based. The conditions noted are these: Homo sapiens, 24 h, read-out: IC50, inhibition of cell proliferation. The method in brief:
as §4

The test system of the next data set is K562. Briefly: MTT assay, cell proliferation. The class given is cell-based. To be noted: Homo sapiens, 24 h, read-out: IC50, inhibition of cell proliferation. Summed up: as §4
A further data set relates to HUVEC. Briefly: MTT assay, cell proliferation. The class given is cell-based, Human. To be noted: Homo sapiens, 24 h, read-out: IC50, inhibition of cell proliferation. The method in brief: as §3
In a further data set the test system is LO2. The experiment in a line: MTT assay, cytotoxicity. The class given is cell-based. To be noted: Homo sapiens, L02, 24 h, read-out: IC50, inhibition of cell proliferation. Summed up:
as §4

Where [6] appears, read: Danio rerio, read-out: antiangiogenic rates.
The mark [7] stands for this setting: Danio rerio, vs vehicle (0.05% DMSO), read-out: Anti-angiogenic phenotype.

Several values for one entry are separate records, joined by “and”; a condition that tells them apart may be missing. Equal values may be shown once. Read-outs that look alike come from different tables or passages of the source. Some results are limits rather than exact numbers.

As for `CC(=O)Nc1ccc(NC(=O)/C(C)=C\CC23OC(C)(C)C4CC(C=C5C(=O)c6c(O)c7c(c(CC=C(C)C)c6OC542)OC(C)(CCC=C(C)C)C=C7)C3=O)cc1` (stereo not shown) [Compound 35, N-(4-acetamidophenyl) gambogamide], the inhibition in vivo at 1 µM in data set [1] (setting [6]) and in data set [1] (setting [7]) was 25 to 50% each time. For the same compound, the inhibition in vivo at 2.5 µM in data set [1] (Danio rerio, 2.5 μM, vs vehicle (0.05% DMSO), read-out: Anti-angiogenic phenotype) was in the range of 50 to 75%. For the same compound, in data set [1] (Danio rerio, 10 μM, vs vehicle (0.05% DMSO), read-out: Anti-angiogenic phenotype), the inhibition in vivo at 10 µM is above 75%. In addition, the “heart rates relative to control group” value in the data set on zebrafish embryos [2] (2.5 µM and 10 µM, zebrafish) is listed as “about half of the control group”. The “Heart rates of zebrafish” value was found to be 57 ± 2.61 beats/min in the data set with zebrafish embryos [2] (2.5 μM) and 45 ± 4.95 beats/min in the data set on zebrafish embryos [2] (10 μM). For the same compound, the Mortality rates is on record as 3.3 ± 5.77 % in the data set with zebrafish embryos [3] (1 μM, zebrafish); “less than 20%” in the data set on zebrafish embryos [3] (2.5 µM and 10 µM, zebrafish embryos); 10 ± 0.00 % in the data set on zebrafish embryos [3] (2.5 μM, zebrafish); 16.7 ± 5.77 % with zebrafish embryos [3] (10 μM, zebrafish). In the data set with HUVECs [4], this compound displayed a migratory rates of 3.6%. In addition, in the data set with HUVECs [5], the inhibition at 0.5 µM is 37%. Further, the IC50 in the data set with A549 was 500 ± 50 nM; with HCT116 it was 400 ± 20 nM; with HeLa, 490 ± 20 nM; with HepG2 it was 270 ± 50 nM; in the data set with K562 it was 260 ± 10 nM; in the data set on HUVEC, 200 ± 10 nM. Moreover, the IC50 in the data set on LO2 is 1170 ± 410 nM.

Regarding `CC(C)=CCC[C@]1(C)C=Cc2c(O)c3c(c(CC=C(C)C)c2O1)O[C@]12C(=C[C@@H]4C[C@H]1C(C)(C)O[C@@]2(C/C=C(/C)C(=O)O)C4=O)C3=O` [GA, Gambogic acid], the Anti-angiogenic phenotype entry in [1] (2.5 μM, vs vehicle (0.05% DMSO)) was “Dead ^b”; in data set [1] (10 μM, vs vehicle (0.05% DMSO)), “Dead”. Besides, the inhibition in vivo at 1 µM in data set [1] (setting [6]) and in data set [1] (setting [7]) was 25 to 50% each time. The “Heart rates of zebrafish” value is 36 beats/min and 36 ± 3.32 beats/min in the data set on zebrafish embryos [2] (1 μM); “Dead ^b” in the data set with zebrafish embryos [2] (2.5 μM); “Dead” in the data set with zebrafish embryos [2] (10 μM). For the same compound, the Mortality rates is on record as 20 ± 0.00% in the data set on zebrafish embryos [3] (1 μM, zebrafish); 73.3% in the data set on zebrafish embryos [3] (2.5 μM, zebrafish); 73.3 ± 5.77% in the data set with zebrafish embryos [3] (2.5 μM, zebrafish, listed as A); 100% in the data set with zebrafish embryos [3] (10 μM, zebrafish). The same compound gave a migratory rates in the data set with HUVECs [4] of 2.2%. Moreover, in the data set on HUVECs [5], the inhibition at 0.5 µM turned out to be 26.1%. For the same compound, the IC50 with A549 is 940 ± 30 nM; in the data set on HCT116, 590 ± 30 nM; in the data set on HeLa, 1140 ± 60 nM; in the data set on HepG2 it was 840 ± 40 nM; with K562, 490 ± 30 nM; with HUVEC, 270 ± 10 nM. For the same compound, in the data set on LO2, the IC50 was found to be 890 ± 80 nM.

For the origin of these results see PMC6268492, “Synthesis and Antiangiogenic Activity of Novel Gambogic Acid Derivatives” (Molecules, 2012).
